Results taken from paper PMC2996585 (Journal of medicinal chemistry, 2010).
“Also recorded” adds a separate entry of the source. Where two headings read alike, the source gives them in different places. Bridges are numbered along the chain shown (N, C = ends). Where no end group is shown, it is not given here.

Molecular target: T1, ENaC (Homo sapiens, UniProt P37088)
T1 sequence (P37088 1-669): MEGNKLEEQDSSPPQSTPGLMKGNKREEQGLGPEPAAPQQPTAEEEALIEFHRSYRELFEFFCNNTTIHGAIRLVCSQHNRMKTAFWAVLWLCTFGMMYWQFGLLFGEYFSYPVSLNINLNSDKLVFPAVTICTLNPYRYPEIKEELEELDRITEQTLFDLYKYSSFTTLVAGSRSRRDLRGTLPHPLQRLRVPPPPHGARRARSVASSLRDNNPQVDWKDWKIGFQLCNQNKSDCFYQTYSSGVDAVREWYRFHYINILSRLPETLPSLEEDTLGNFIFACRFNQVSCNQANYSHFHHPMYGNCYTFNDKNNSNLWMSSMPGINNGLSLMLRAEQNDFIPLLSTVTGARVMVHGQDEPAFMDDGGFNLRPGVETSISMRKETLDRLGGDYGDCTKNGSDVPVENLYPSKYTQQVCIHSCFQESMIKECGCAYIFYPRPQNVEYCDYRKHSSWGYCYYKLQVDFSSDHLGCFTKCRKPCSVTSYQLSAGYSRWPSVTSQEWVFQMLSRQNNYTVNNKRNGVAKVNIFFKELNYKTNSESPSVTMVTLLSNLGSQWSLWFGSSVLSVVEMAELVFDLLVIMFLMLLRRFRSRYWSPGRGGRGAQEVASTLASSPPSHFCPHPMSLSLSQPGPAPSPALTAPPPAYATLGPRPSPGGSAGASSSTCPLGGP
T1 sequence (P51168 1-640 partner): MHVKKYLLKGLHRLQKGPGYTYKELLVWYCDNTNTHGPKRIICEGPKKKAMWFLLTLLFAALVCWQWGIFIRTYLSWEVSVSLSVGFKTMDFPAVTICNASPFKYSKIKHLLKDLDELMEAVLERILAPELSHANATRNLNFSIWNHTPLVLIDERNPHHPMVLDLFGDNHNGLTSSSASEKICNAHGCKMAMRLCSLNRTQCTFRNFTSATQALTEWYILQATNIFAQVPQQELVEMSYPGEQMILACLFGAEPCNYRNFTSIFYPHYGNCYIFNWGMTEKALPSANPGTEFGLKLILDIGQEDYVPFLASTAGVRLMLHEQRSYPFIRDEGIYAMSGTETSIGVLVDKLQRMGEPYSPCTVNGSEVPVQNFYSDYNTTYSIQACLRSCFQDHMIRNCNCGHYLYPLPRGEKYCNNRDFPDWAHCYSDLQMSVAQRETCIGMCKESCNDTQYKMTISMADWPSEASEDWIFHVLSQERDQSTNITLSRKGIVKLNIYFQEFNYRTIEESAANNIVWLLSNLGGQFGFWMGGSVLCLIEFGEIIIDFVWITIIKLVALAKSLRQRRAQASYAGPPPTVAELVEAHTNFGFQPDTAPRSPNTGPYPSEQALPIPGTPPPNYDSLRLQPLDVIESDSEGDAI
T1 sequence (P51170 1-649 partner): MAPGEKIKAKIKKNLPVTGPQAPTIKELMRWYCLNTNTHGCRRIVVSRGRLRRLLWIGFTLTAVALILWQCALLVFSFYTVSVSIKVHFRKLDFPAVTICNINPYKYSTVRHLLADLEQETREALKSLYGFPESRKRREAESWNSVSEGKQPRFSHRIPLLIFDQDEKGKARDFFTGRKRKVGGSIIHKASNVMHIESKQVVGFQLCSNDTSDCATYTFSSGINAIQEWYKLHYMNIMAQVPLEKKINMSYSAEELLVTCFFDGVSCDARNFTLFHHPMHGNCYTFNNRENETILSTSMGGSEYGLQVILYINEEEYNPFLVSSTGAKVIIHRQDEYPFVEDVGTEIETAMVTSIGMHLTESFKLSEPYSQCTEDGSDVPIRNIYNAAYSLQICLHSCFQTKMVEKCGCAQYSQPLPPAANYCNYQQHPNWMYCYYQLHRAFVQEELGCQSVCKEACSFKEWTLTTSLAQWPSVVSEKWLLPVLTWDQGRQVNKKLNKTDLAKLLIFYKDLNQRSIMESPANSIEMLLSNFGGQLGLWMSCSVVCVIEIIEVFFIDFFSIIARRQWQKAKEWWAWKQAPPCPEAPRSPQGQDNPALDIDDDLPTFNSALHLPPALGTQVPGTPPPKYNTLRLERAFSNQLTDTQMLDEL
Assay type: cell-based
Conditions: A549 cells, whole-cell patch clamp; for ENaC-activating effect / effect on sodium current (in words): no concentration stated at the place

Row | Substance | Effect on ENaC (concentrations up to 480 nM) | ENaC-activating effect / effect on sodium current (in words) | Effect on ENaC (concentrations up to 240 nM) | ENaC-activating effect / effect on sodium current (in words) (listed as 22)
1 | CGQREAPAGAAAKPWYC (disulfide 1-17) [compound 12, reference compound] | no effect | ineffective; also recorded: no effect | – | –
2 | CQRETPEGAEAKGGC (disulfide 1-15) [compound 2] | no effect | ineffective; also recorded: inactive | – | –
3 | Cyclo(4-aminobutanoic acid-GQRETPEGAEAKPWYG) (head to tail) [compound 7] | no effect | did not affect ENaC; also recorded: inactive | no effect | –
4 | Cyclo(5-aminopentanoic acid-GQRETPEGAEAKPWYG) (head to tail) [compound 6] | no effect | did not affect ENaC; also recorded: inactive | no effect | –
5 | Cyclo(6-aminohexanoic acid-GQRETPEGAEAKPWYG) (head to tail) [compound 11] | no effect | inactive | no effect | did not affect ENaC
6 | Cyclo(7-aminoheptanoic acid-GQRETPEGAEAKPWY) (head to tail) [compound 10] | no effect | – | no effect | –
